Reference: the NIST ThermoML archive (doi:10.1016/j.jct.2012.02.037)

Legend:
[1] = 303.15 K; 101.33 kPa; Liquid; Vibrating tube method
[2] = refractive index (Na D-line) (dimensionless); conditions: 303.15 K; 101.33 kPa; Liquid; Standard Abbe refractometry
[3] = excess molar enthalpy (molar enthalpy of mixing); xn = mol fraction of the nth substance listed; conditions: 300 K, 101 kPa, Liquid, Flow calorimetry

CCCCO [butan-1-ol]
Conditions	mass density [kg/m3]	refractive index
[1]	801.98	–
[2]	–	1.3962

CCC(C)O (configuration not stated) [butan-2-ol]
Conditions	mass density [kg/m3]	refractive index
[1]	798.58	–
[2]	–	1.394

OC1CCCCC1 [cyclohexanol]
Conditions	mass density [kg/m3]	refractive index
[1]	941.36	–
[2]	–	1.4632

OC1CCCCC1 [cyclohexanol] + CC(C)O
[3]
Conditions	excess molar enthalpy [kcal/mol]
x1 = 0.0817	0.0162
x1 = 0.1653	0.0276
x1 = 0.2454	0.0356
x1 = 0.3436	0.0429
x1 = 0.5462	0.0466
x1 = 0.6326	0.0451
x1 = 0.7173	0.0405
x1 = 0.8036	0.0298
x1 = 0.9097	0.0172

OC1CCCCC1 [cyclohexanol] + CCC(C)O
[3]
Conditions	excess molar enthalpy [kcal/mol]
x1 = 0.0831	0.0112
x1 = 0.0874	0.0117
x1 = 0.1613	0.019
x1 = 0.1704	0.0201
x1 = 0.2787	0.0284
x1 = 0.3304	0.0304
x1 = 0.4131	0.0334
x1 = 0.5657	0.0359
x1 = 0.6512	0.0363
x1 = 0.7441	0.0325
x1 = 0.7557	0.0319
x1 = 0.8271	0.0247
x1 = 0.8352	0.0238
x1 = 0.9129	0.0128
x1 = 0.9201	0.0127

OC1CCCCC1 [cyclohexanol] + CCCCO
[3]
Conditions	excess molar enthalpy [kcal/mol]
x1 = 0.0976	0.00894
x1 = 0.1867	0.0143
x1 = 0.3025	0.0214
x1 = 0.3622	0.0241
x1 = 0.4484	0.0271
x1 = 0.5609	0.0279
x1 = 0.6402	0.0279
x1 = 0.7119	0.0261
x1 = 0.7842	0.022
x1 = 0.785	0.0223
x1 = 0.8549	0.0168
x1 = 0.8747	0.0141
x1 = 0.9059	0.011

OC1CCCCC1 [cyclohexanol] + CCCO
[3]
Conditions	excess molar enthalpy [kcal/mol]
x1 = 0.0808	0.00583
x1 = 0.1568	0.0106
x1 = 0.2326	0.0151
x1 = 0.3085	0.0175
x1 = 0.3888	0.0201
x1 = 0.4614	0.0226
x1 = 0.547	0.0236
x1 = 0.6359	0.023
x1 = 0.7223	0.0205
x1 = 0.8063	0.0166
x1 = 0.901	0.00978

OC1CCCCC1 [cyclohexanol] + CCO
[3]
Conditions	excess molar enthalpy [kcal/mol]
x1 = 0.0883	0.0164
x1 = 0.1688	0.0283
x1 = 0.2501	0.0351
x1 = 0.337	0.0397
x1 = 0.456	0.0422
x1 = 0.5436	0.0424
x1 = 0.6255	0.0391
x1 = 0.7119	0.0348
x1 = 0.8026	0.0279
x1 = 0.9062	0.016

OC1CCCCC1 [cyclohexanol] + CO
[3]
Conditions	excess molar enthalpy [kcal/mol]
x1 = 0.0742	0.0249
x1 = 0.1422	0.0368
x1 = 0.2234	0.0468
x1 = 0.2948	0.051
x1 = 0.4871	0.0514
x1 = 0.5587	0.0463
x1 = 0.6333	0.0406
x1 = 0.7266	0.0318
x1 = 0.8274	0.0196
x1 = 0.9162	0.0101

CCO [ethanol]
Conditions	mass density [kg/m3]	refractive index
[1]	780.82	–
[2]	–	1.358

CO [methanol]
Conditions	mass density [kg/m3]	refractive index
[1]	781.87	–
[2]	–	1.3255

CCCO [propan-1-ol]
Conditions	mass density [kg/m3]	refractive index
[1]	795.53	–
[2]	–	1.3821

CC(C)O [propan-2-ol]
Conditions	mass density [kg/m3]	refractive index
[1]	776.71	–
[2]	–	1.3741
